Data set [1] has as its target T1, EAAT2 (Homo sapiens, UniProt P43004). As to the kind of experiment: Two-electrode voltage clamp transport currents in Xenopus oocytes expressing EAAT2. Conditions: 1 mM substrate vs 1 mM glutamate, -60 mV. Format: cell-based. The procedure: (§1) mRNA from linearized pOTV-EAAT1, pOTV-EAAT2 and pOTV-EAAT3 was generated as previously described and resuspended in RNAase-free water and used for oocytes injections. Xenopus oocytes where injected with 50 nl of mRNA and incubated at 18°C in 96 mM NaCl, 2 mM KCl, 1.8 mM CaCl2, 1.0 mM MgCl2, 5 mM HEPES, pH 7.4 (ND96) supplemented with 2.5 mM Sodium Pyruvate and Gentamicyn for 2 to 3 days prior to using in electrophysiological recordings and radio-labeled transport experiments.
(§2) Oocytes were held at −60 mV, and currents elicited by 200 ms voltage steps between −120 mV and +60 mV were filtered at 2 kHz (−3dB) and digitalized with a sampling rate of 10 kHz using a Digidata AD/DA converter (Molecular Devices, Sunnyvale, CA, USA). Borosilicate pipets where filled with 3 M KCl and typical resistances where 0.2 to 1 MΩ. Transport currents were determined at −60 mV in a gluconate-based ND96 solution. In order to dialyze internal chloride, oocytes were incubated 12 to 24 hours in the gluconate solution. Anion currents were determined at positive potentials (+60 mV) after exchanging the external solution to NO3-based ND96 (replacement of 96 mM NaCl with 96 mM NaNO3) solution in the absence or in the presence of 1 mM external substrates. […] Data were analyzed with a combination of pClamp 9.2 (Axon Instrument) and Sigma Plot (Jandel Scientific, San Rafael, CA, USA). […]
On the technique in general: In two-electrode clamp one electrode senses voltage and the other passes current.

The test system of data set [2] is EAAT3 and ASCT1. The experiment in a line: Release of preloaded [35S]-L-cysteine from Xenopus oocytes co-expressing EAAT3 and ASCT1. Format: cell-based, human. The procedure: mRNA from linearized pOTV-EAAT1, pOTV-EAAT2 and pOTV-EAAT3 was generated as previously described and resuspended in RNAase-free water and used for oocytes injections.
(§3) Oocytes were washed 3 times in ND96 buffer followed by incubation for 10 min with non-radiolabeled substrates as indicated. The supernatant was removed and collected for scintillation counting, while the oocytes were lysed in 1% sodium dodecylsulfate (SDS). The oocytes lysate and supernatant were counted separately by liquid scintillation counting to determine both retained and released radioactivity respectively. Percent of released radioactivity was determined as a function of the released/(retained + released).

The subject of data set [3] is EAAT3. Also noted: method as in PMID 8782106. The settings on record: EAAT3 vs other EAATs; cited from earlier work.
Data set [4] deals with EAAT2. Also on record: method as in PMID 8782106. The settings on record: EAAT2, low affinity; read-out: Km for cysteine transport; cited from earlier work.
For a further data set, the target named is T2, EAAT1 (Homo sapiens, UniProt P43003).
T2 construct: expressed in transfected cells; host or cells: Xenopus oocytes injected with mRNA
T2 sequence (P43003 whole entry): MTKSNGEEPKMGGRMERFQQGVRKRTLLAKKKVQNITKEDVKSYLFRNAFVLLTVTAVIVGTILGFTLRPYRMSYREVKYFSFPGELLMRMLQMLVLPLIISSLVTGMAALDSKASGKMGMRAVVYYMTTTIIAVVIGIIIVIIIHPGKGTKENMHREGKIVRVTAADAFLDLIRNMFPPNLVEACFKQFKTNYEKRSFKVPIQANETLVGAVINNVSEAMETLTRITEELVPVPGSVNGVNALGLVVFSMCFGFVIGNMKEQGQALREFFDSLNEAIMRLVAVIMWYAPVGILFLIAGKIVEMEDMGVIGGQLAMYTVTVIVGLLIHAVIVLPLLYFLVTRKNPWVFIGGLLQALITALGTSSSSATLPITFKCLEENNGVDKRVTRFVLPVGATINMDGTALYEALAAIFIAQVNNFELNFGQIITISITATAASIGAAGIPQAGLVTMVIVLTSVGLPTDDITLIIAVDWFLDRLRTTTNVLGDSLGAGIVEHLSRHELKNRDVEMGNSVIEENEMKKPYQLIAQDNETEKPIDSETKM
The experiment in a line: Two-electrode voltage clamp transport currents in Xenopus oocytes expressing EAAT1. Format: cell-based. The settings on record: 1 mM substrate vs 1 mM glutamate, -60 mV. The procedure: as §1, §2

The target in data set [5] is T3, EAAT3 (Homo sapiens, UniProt P43005).
T3 sequence (P43005 1-524): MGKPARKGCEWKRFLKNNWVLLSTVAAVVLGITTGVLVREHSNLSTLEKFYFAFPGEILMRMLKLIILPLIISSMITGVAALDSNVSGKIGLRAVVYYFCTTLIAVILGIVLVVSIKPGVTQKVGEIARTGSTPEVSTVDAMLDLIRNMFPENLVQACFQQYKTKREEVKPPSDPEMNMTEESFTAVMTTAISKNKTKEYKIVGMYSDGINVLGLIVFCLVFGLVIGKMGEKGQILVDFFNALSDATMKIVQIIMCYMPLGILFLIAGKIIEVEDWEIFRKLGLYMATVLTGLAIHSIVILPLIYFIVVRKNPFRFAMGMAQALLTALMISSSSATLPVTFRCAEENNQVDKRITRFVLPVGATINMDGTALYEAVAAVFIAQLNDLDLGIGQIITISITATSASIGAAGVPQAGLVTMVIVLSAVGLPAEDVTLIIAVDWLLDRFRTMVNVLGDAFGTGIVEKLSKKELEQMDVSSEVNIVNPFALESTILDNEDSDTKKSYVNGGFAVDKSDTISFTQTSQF
The experiment in a line: Substrate inhibition of [3H]-L-glutamate uptake in HEK293 cells expressing EAAT3. Type of data set: cell-based. Also on record: expressed in transfected cells; host or cells: HEK293. The procedure: (§4) For radiolabeled transport experiments, 2×10^6 cells were transfected in 1 mL of Opti-Mem (Life Technologies) using 6 µL of Lipofectamine 2000 (Invitrogen) with 1 µg pCMV-EAAT2 or pCMV-EAAT3 DNA and plated at 5×10^4 cells/well in 24 well Costar (Corning) plates with 0.5 mL DMEM culture media prepared as above. Following transfection and plating, cells were cultured 2–3 days prior to [^3H]-L-Glutamate transport experiments.
(§5) Transport was allowed to proceed for 10 min and was terminated by 3 washes with cold perfusion buffer. Cells were lysed with 1% SDS/0.1N NaOH and radioactivity determined by scintillation counting. Data analysis was performed using Graphpad Prism (Graphpad Software Inc.).

The target in data set [6] is T1, EAAT2. The experiment in a line: mEGFPpH fluorescence imaging of intracellular pH in HEK293 cells co-expressing EAAT2. Type of data set: cell-based. Also on record: expressed in transfected cells; host or cells: HEK293. The settings on record: for mEGFPpH fluorescence change: 1 mM perfusion; for slope of fluorescence change normalized to that of 100 µM glutamate: selenocysteine at 100 µM.
From the text: (§7) Cells expressing mEGFPpH were imaged with a Zeiss Axiovert 135T inverted microscope with a 40X NeoFluar oil immersion objective (NA1.3). A Lambda DG4 (Sutter Instrument Co.) equipped with a xenon arc lamp was used for high-speed excitation wavelength switching. Images were collected using either a Quantix (Roper Scientific, Tucson, AZ) or an Orca ER (Hammamatsu Co.) cooled CCD. For pH imaging experiments, the fluorescence filters (Omega Optical) were: excitation 405±20 and 485±7.5; dichroic 400-480-585DLRP; emission 510±11.5. Software control and data acquisition were accomplished using Axon Imaging Workbench (INDEC Biosystems) or OpenLab acquisition software (Improvision, Perkin Elmer). Cells were incubated at room temperature with continuous perfusion using standard buffer containing (in mM): 146 NaCl, 5 KCl, 5 HEPES, 2.5 CaCl2 and 1.2 MgCl2 at pH 7.35 with additions (substrates etc.) as indicated in figure legends. Acquisition exposure times were identical for both 405 nm and 485 nm excitation wavelengths adjusted so that the 510 emission was not saturated for either excitation wavelength. Prior to perfusion with buffers containing substrates, cells were perfused in standard buffer to achieve a stable base line. Fluorescence was reported as the ratio of fluorescence at 510 nm by excitation with 485 and 405 nm wavelengths (F485/F405).

Data set [7] deals with T4, EAAT3 and ASCT1 (Homo sapiens, UniProt P43005).
T4 construct: expressed in transfected cells; host or cells: Xenopus oocytes
T4 sequence (P43005 1-524): T3 sequence (P43005 1-524)
As to the kind of experiment: Release of preloaded [3H]-L-glutamate from Xenopus oocytes co-expressing EAAT3 and ASCT1. Format: cell-based. The settings on record: extracellular cysteine, concentration not given. The procedure: as §1, §3

Data set [8] addresses T1, EAAT2. The experiment in a line: Substrate inhibition of [3H]-L-glutamate uptake in HEK293 cells expressing EAAT2. Type of data set: cell-based. Also on record: expressed in transfected cells; host or cells: HEK293. The procedure:
as §4, §5

The target of data set [9] is T3, EAAT3. The experiment in a line: mEGFPpH fluorescence imaging of intracellular pH in HEK293 cells co-expressing EAAT3. The settings on record: EAAT3 HEK293 cells; for mEGFPpH fluorescence change: 1 mM perfusion; for slope of fluorescence change normalized to that of 100 µM glutamate: selenocysteine at 100 µM, cysteine change opposite in direction.
From the text: as §7
In data set [10] the target is T3, EAAT3. As to the kind of experiment: Two-electrode voltage clamp transport currents in Xenopus oocytes expressing EAAT3. The settings on record: for transport current amplitude relative to glutamate transport current: 1 mM substrate vs 1 mM glutamate, EAAT3 oocytes, -60 mV. Type of data set: cell-based. The procedure: as §1
(§6) Oocytes were held at −60 mV, and currents elicited by 200 ms voltage steps between −120 mV and +60 mV were filtered at 2 kHz (−3dB) and digitalized with a sampling rate of 10 kHz using a Digidata AD/DA converter (Molecular Devices, Sunnyvale, CA, USA). Borosilicate pipets where filled with 3 M KCl and typical resistances where 0.2 to 1 MΩ. Transport currents were determined at −60 mV in a gluconate-based ND96 solution. In order to dialyze internal chloride, oocytes were incubated 12 to 24 hours in the gluconate solution. Anion currents were determined at positive potentials (+60 mV) after exchanging the external solution to NO3-based ND96 (replacement of 96 mM NaCl with 96 mM NaNO3) solution in the absence or in the presence of 1 mM external substrates. In experiments using cysteine as a substrate, all solutions contained 2 mM dithiothreitol (DTT). Data were analyzed with a combination of pClamp 9.2 (Axon Instrument) and Sigma Plot (Jandel Scientific, San Rafael, CA, USA). Whole cell current amplitudes are shown without any subtraction protocol. Current-voltage relationships were constructed by plotting the isochronal current 6 ms after the voltage step versus the membrane potential. All data are given as the mean ± standard deviation of the mean (SDM). For evaluation the statistical relevance, the Student’s t-Test was used with an α of 0.05.

Data set [11] is described as follows: Protonation state calculated with the Henderson-Hasselbalch equation. Format: physicochemical.
Data set [12] has as its target T3, EAAT3. As to the kind of experiment: Substrate-gated anion (NO3) currents in Xenopus oocytes expressing EAAT3. Format: cell-based. Conditions: 1 mM substrate, NO3-based solution, Figure 2C, n = 4. The procedure: as §1, §6
For data set [13] the following is noted: amino acid side chain; cited from earlier work.

Where “and” joins values, the source holds several entries; their conditions need not be identical. Equal values may be shown once. Read-outs that look alike come from different tables or passages of the source.

Here are results for two compounds from PMC4183567, “Cysteine Transport through Excitatory Amino Acid Transporter 3 (EAAT3)” (PLoS ONE, 2014).

Broadly, the Km is the substrate concentration at which the rate is half of its maximum. As a reminder, the IC50 is the concentration that inhibits the measured activity by half. High values mean weaker potency in that assay, low ones greater potency in that assay. One may read the inhibition as the drop in the measured response relative to a control, in per cent.

T1 sequence (P43004 whole entry): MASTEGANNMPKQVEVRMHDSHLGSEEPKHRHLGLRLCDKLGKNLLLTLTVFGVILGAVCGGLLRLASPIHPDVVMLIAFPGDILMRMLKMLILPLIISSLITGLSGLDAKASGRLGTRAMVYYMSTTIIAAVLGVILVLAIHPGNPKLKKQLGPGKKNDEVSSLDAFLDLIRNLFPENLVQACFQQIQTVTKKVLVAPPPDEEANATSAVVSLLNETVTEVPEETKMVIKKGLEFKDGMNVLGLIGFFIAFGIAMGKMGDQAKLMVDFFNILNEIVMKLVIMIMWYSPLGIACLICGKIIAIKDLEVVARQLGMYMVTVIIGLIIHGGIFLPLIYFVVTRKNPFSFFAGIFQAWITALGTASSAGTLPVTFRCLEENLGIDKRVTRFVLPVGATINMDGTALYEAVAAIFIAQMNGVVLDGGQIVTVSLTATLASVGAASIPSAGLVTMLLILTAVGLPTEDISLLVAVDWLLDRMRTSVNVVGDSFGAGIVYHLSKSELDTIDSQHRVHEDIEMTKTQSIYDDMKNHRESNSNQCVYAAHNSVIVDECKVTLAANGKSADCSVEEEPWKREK

Consider `N[C@@H](CS)C(=O)O` [cysteine, L-cysteine], for which the “transport current amplitude relative to glutamate transport current” value on EAAT2 [1] is given as 7.0±4.2%; on EAAT1, 33±1.5%; at EAAT3 [10] it was 86±14%. For the same compound, in the data set with EAAT3 and ASCT1 [2] (300 µM cysteine vs 100 µM glutamate), the “fold increase of [35S]-cysteine release over that released by glutamate application” value is listed as 5 fold. The “release of preloaded [35S]-L-cysteine” value with EAAT3 and ASCT1 [2] (300 µM extracellular substrate, 10 min) turned out to be 10%. The “fold higher apparent affinity for transport (Km) than the other members of the family” value with EAAT3 [3] is “approximately 10 fold”. The Michaelis-Menten constant (Km) with EAAT2 [4] was above 1000 µM. The compound also showed a half-maximal inhibitory concentration (IC50) against EAAT3 [5] of 631 ± 50 µM. Further, the inhibition at 1000 µM came to 70% on EAAT3 [5] (read-out: inhibition of glutamate uptake, EAAT3 HEK293 cells, 1 mM inhibitor) and 20% at EAAT2 [8] (read-out: inhibition of glutamate transport, EAAT2 HEK293 cells, 1 mM inhibitor). For the same compound, the mEGFPpH fluorescence change result on EAAT2 [6] is reported as “did not produce observable fluorescence changes from baseline”; on EAAT3 [9], “increase in mEGFPpH fluorescence”. Moreover, the figures for the “slope of fluorescence change normalized to that of 100 µM glutamate” value on EAAT2 [6] and on EAAT3 [9] were “no observable fluorescence changes” and 0.28±0.03, respectively. Further, the “release of loaded [3H]-L-glutamate” value at EAAT3 and ASCT1 [7] was determined as 7.5%. In addition, the “fraction in thiolate form” value in [11] (pH 6.9) is ~3.8% and 4%; in data set [11] (pH = 7.5), around 14%. The “fraction in thiolate (R-S-) form” value in [11] (pH 8.5) is around 61%. In data set [11] (physiological pH), the fraction protonated was around 90%.
As to `N[C@@H](C[SeH])C(=O)O` [selenocysteine, L-selenocysteine], the “anion current amplitude at +60 mV” value on EAAT3 [12] is 1.72±0.4 µA. For the same compound, the figures for the “transport current amplitude relative to glutamate transport current” value on EAAT2 [1], at EAAT1 and at EAAT3 [10] were 72.1±17%, 89.5±6.7% and 95.6±14%, respectively. The IC50 on EAAT3 [5] came to 71 ± 10 µM; against EAAT2 [8], 46 ± 12 µM. Also, the “fold lower IC50 than for cysteine” value on EAAT3 [5] (EAAT3 HEK293 cells) is given as “approximately 10 fold”. In addition, the inhibition at 1000 µM is above 90% at EAAT3 [5] (HEK293, read-out: inhibition of glutamate uptake) and around 90% on EAAT2 [8] (HEK293, read-out: inhibition of glutamate transport). In [13], the “side chain pKa” value is 5.3. In addition, the mEGFPpH fluorescence change entry at EAAT2 [6] is “fluorescence decrease similar in magnitude to that observed for glutamate”; on EAAT3 [9] it was “fluorescence decrease”. For the same compound, the “slope of fluorescence change normalized to that of 100 µM glutamate” value on EAAT2 [6] came out at 0.85±0.02; on EAAT3 [9] it was 0.86±0.03. Further, the inward transport current on EAAT3 [10] (1 µM selenocysteine perfusion, Figure 2A) is reported as 20 nA. Moreover, the “fraction in deprotonated state” value in data set [11] (physiological pH) is above 99%.
